According to US20260176320A1, “MODULATORS OF G-PROTEIN COUPLED RECEPTORS” (priority 2018, published 2026):
Where two headings read alike, the source gives them in different places. Numbered stars: 1 amine (or outer) side, 2 acyl side, 3 side chain; on linkers, the order of the positions; unused ones are H or OH. Square brackets hold non-standard residues; d marks the D form. Side chains are listed from the residue outwards. Peptide text beside a SMILES is read from it. * marks the point of attachment. X1 = O=C(CSCC(=O)*)NCCN1C(=O)c2ccccc2C1=O; X9 = O=C([C@H](Cc1cc(O)no1)N[*:1])[*:2]; γGlu = O=C(O)[C@H](CCC(=O)[*:2])N[*:1]; Palmitoyl = CCCCCCCCCCCCCCCC(=O)*; X6 = O=C(CSCC(=O)*)NCCN1CCCCC1=O; Aib = CC(C)(N)C(=O)O

What was measured:
Type in all cases: cell-based
GLP-1R [1] = molecular target: T1, GLP-1R (Homo sapiens, UniProt P43220); test: HitHunter cAMP assay (GLP-1R); settings: cAMP; for Emax: read-out: (Emax) GLP-1R; for EC50: read-out: EC50 GLP-1R/nM
How it was run: (§1)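 Suspension cells (10,000/well) in HBSS with 10 mM HEPES, 625 μM IBMX, 0.2% BSA exposed to 22-point 2-fold agonist series in duplicate for 30 min at room temperature. cAMP measured by antibody immunocompetition with overnight development, luminescence read-out.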

GLP-1R [2] = molecular target: T1, GLP-1R; test: PathHunter β-arrestin assay
Experimental: The effects of the chemical entities described herein on β-arrestin signaling and associated downstream processes (e.g., those delineated above) can be assessed using conventional methods, e.g., PathHunter β-arrestin Assay for determining β-arresting coupling (see Examples section). […] It has been shown that b-arrestin coupling is a key strep in receptor internalization and subsequent de-sensitization and attenuation of signaling.
5,000 cells were seeded in appropriate cell culture media per well in a low volume 384-well tissue culture plate. The assay plate was incubated with cells overnight at 37° C. and 5% CO2. The media was removed, and 5 μL of appropriate cell culture media containing 0.2% BSA was added. Agonist serial dilutions in a separate 384 well dilution plate in a 22-point series of 2× dilutions of agonist in DMSO were performed as follows. 80 μL of the highest concentration of Agonist/DMSO was added to well No. 1. 40 μL was removed from well No. 1, and added to well No. 2, followed by gentle mixing. […] This process was repeated until well No. 22. Additional serial dilutions for additional agonists were set up in a similar manner. 100 nL of each 2× agonist serial dilution was added in duplicate to the designated agonist rows of the assay plate using the Labcyte ECHO. Assay plate was incubated for 90 minutes at 37° C. and 5% CO2. A stock of Working Detection Solution in a separate 15 ml polypropylene tube was prepared by mixing 19 parts of Cell Assay Buffer, 5 parts of Substrate Reagent 1, 1 part Substrate Reagent 2. […] Plates were spun down briefly. Assay plate was incubated for 3 hour at room temperature in the dark for the immunocompetition reaction to occur. Samples were read on Tecan i-control plate reader using luminescence mode with 100 ms integration time. Data analysis was performed using GraphPad Prism.

GIP-R = molecular target: T2, GIP-R (Homo sapiens, UniProt P48546); test: HitHunter cAMP assay (GIP-R); settings: cAMP; for Emax: read-out: (Emax) GIP-R; for EC50: read-out: EC50 GIP-R/nM
T2 sequence (P48546 22-466): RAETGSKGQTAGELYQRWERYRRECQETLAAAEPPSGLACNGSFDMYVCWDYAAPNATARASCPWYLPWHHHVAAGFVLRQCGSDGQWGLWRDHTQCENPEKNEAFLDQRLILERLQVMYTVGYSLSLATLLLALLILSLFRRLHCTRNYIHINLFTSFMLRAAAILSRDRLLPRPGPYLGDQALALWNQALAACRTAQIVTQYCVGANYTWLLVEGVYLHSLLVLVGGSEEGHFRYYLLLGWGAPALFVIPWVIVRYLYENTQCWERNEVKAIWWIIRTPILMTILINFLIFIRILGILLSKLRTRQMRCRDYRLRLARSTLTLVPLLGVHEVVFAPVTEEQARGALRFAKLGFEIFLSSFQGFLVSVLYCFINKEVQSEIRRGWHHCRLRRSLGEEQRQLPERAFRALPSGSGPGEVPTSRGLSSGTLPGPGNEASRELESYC
How it was run: as §1

[3] = PathHunter β-arrestin assay, read-out: β-arrestin activity EC50

T1 sequence (P43220 24-463): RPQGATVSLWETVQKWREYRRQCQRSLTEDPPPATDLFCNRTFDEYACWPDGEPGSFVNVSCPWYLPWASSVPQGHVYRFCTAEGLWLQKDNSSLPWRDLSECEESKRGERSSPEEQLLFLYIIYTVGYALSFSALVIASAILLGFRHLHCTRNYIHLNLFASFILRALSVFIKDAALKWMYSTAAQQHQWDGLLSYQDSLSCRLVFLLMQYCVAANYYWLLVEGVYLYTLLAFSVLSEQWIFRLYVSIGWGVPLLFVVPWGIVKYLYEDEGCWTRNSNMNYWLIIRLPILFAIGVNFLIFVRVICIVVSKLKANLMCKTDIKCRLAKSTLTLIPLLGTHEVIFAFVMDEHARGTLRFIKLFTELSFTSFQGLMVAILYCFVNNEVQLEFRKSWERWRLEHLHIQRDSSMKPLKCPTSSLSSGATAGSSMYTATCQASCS

| SMILES | Emax (GLP-1R [1]; Table 3) [%] | EC50 (GLP-1R [1]; Table 3) [nM] | Emax (GLP-1R [1]; Table 3A) [%] | EC50 (GLP-1R [1]; Table 3A) [nM] | EC50 (GLP-1R [2]; [3]) [nM] | Emax (GIP-R; Table 3) [%] | EC50 (GIP-R; Table 3) [nM] | Emax (GIP-R; Table 3A) [%] | EC50 (GIP-R; Table 3A) [nM] | EC50 (GLP-1R [2]) [nM] |
| --- | --- | --- | --- | --- | --- | --- | --- | --- | --- | --- |
| CCCCCCCCCCCCCCCC(=O)N[C@@H](CCC(=O)NCCCC[C@H](NC(=O)[C@H](CO)NC(=O)[C@@H]1CCCN1C(=O)[C@@H]1CCCN1C(=O)[C@@H]1CCCN1C(=O)[C@H](C)NC(=O)CNC(=O)[C@H](CO)NC(=O)[C@H](CO)NC(=O)[C@@H]1CCCN1C(=O)CNC(=O)CNC(=O)[C@H](C)NC(=O)[C@H](CC(C)C)NC(=O)[C@H](CC(C)C)NC(=O)[C@H](Cc1c[nH]c2ccccc12)NC(=O)[C@H](CC(N)=O)NC(=O)[C@@H](NC(=O)[C@H](Cc1ccccc1)NC(=O)[C@H](CCC(=O)O)NC(=O)C(C)(C)NC(=O)[C@H](C)NC(=O)[C@H](C)NC(=O)[C@H](CCC(N)=O)NC(=O)[C@H](CCCCN)NC(=O)[C@H](CC(=O)O)NC(=O)[C@H](CC(C)C)NC(=O)[C@H](Cc1ccc(O)cc1)NC(=O)[C@@H](NC(=O)[C@H](CO)NC(=O)[C@H](Cc1ccc(O)cc1)NC(=O)[C@H](CC(=O)O)NC(=O)[C@H](CO)NC(=O)[C@@H](NC(=O)[C@H](Cc1ccccc1)NC(=O)[C@@H](NC(=O)CNC(=O)[C@H](CCC(=O)O)NC(=O)CC(C)(C)NC(=O)CCN1CCCCC1=O)[C@@H](C)O)[C@@H](C)O)[C@@H](C)CC)C(C)C)C(N)=O)C(=O)O [Compound 3] | 96 | 0.1 to 1 | 96 | 0.1 to 1 | > 1000 | – | – | – | – | – |
| CCCCCCCCCCCCCCCC(=O)N[C@@H](CCC(=O)NCCCC[C@H](NC(=O)[C@H](CO)NC(=O)[C@@H]1CCCN1C(=O)[C@@H]1CCCN1C(=O)[C@@H]1CCCN1C(=O)[C@H](C)NC(=O)CNC(=O)[C@H](CO)NC(=O)[C@H](CO)NC(=O)[C@@H]1CCCN1C(=O)CNC(=O)CNC(=O)[C@H](C)NC(=O)[C@H](CC(C)C)NC(=O)[C@H](CC(C)C)NC(=O)[C@H](Cc1c[nH]c2ccccc12)NC(=O)[C@H](CC(N)=O)NC(=O)[C@@H](NC(=O)[C@H](Cc1ccccc1)NC(=O)[C@H](CCC(=O)O)NC(=O)C(C)(C)NC(=O)[C@H](C)NC(=O)[C@H](C)NC(=O)[C@H](CCC(N)=O)NC(=O)[C@H](CCCCN)NC(=O)[C@H](CC(=O)O)NC(=O)[C@H](CC(C)C)NC(=O)[C@H](Cc1ccc(O)cc1)NC(=O)[C@@H](NC(=O)[C@H](CO)NC(=O)[C@H](Cc1ccc(O)cc1)NC(=O)[C@H](CC(=O)O)NC(=O)[C@H](CO)NC(=O)[C@@H](NC(=O)[C@H](Cc1ccccc1)NC(=O)[C@@H](NC(=O)CNC(=O)[C@H](CCC(=O)O)NC(=O)C(C)(C)CNC(=O)CCN1CCCCC1=O)[C@@H](C)O)[C@@H](C)O)[C@@H](C)CC)C(C)C)C(N)=O)C(=O)O [Compound 4] | 100 | 0.1 to 1 | 100 | < 0.1 | 10 to 1000 | 23 | 1 to 10 | 23 | 10 to 100 | – |
| CCCCCCCCCCCCCCCC(=O)N[C@@H](CCC(=O)NCCCC[C@H](NC(=O)[C@H](CO)NC(=O)[C@@H]1CCCN1C(=O)[C@@H]1CCCN1C(=O)[C@@H]1CCCN1C(=O)[C@H](C)NC(=O)CNC(=O)[C@H](CO)NC(=O)[C@H](CO)NC(=O)[C@@H]1CCCN1C(=O)CNC(=O)CNC(=O)[C@H](C)NC(=O)[C@H](CC(C)C)NC(=O)[C@H](CC(C)C)NC(=O)[C@H](Cc1c[nH]c2ccccc12)NC(=O)[C@H](CC(N)=O)NC(=O)[C@@H](NC(=O)[C@H](Cc1ccccc1)NC(=O)[C@H](CCC(=O)O)NC(=O)C(C)(C)NC(=O)[C@H](C)NC(=O)[C@H](C)NC(=O)[C@H](CCC(N)=O)NC(=O)[C@H](CCCCN)NC(=O)[C@H](CC(=O)O)NC(=O)[C@H](CC(C)C)NC(=O)[C@H](Cc1ccc(O)cc1)NC(=O)[C@@H](NC(=O)[C@H](CO)NC(=O)[C@H](Cc1ccc(O)cc1)NC(=O)[C@H](CC(=O)O)NC(=O)[C@H](CO)NC(=O)[C@@H](NC(=O)[C@H](Cc1ccccc1)NC(=O)[C@@H](NC(=O)CNC(=O)[C@H](Cc1cc(O)no1)NC(=O)CSCC(=O)NCCN1CCCCC1=O)[C@@H](C)O)[C@@H](C)O)[C@@H](C)CC)C(C)C)C(N)=O)C(=O)O [Compound 292] (X6-[X9]GTFTSDYSIYLDKQAA[Aib]EFVNWLLAGGPSSGAPPPSK([γGlu-Palmitoyl])-NH2) | – | – | 90 | 1 to 10 | – | – | – | 50 | 10 to 100 | – |
| CC[C@H](C)[C@H](NC(=O)[C@H](CO)NC(=O)[C@H](Cc1ccc(O)cc1)NC(=O)[C@H](CC(=O)O)NC(=O)[C@H](CO)NC(=O)[C@@H](NC(=O)[C@H](Cc1ccccc1)NC(=O)[C@@H](NC(=O)CNC(=O)[C@H](CCC(=O)O)NC(=O)CSCC(=O)NCCN1C(=O)c2ccccc2C1=O)[C@@H](C)O)[C@@H](C)O)C(=O)N[C@@H](Cc1ccc(O)cc1)C(=O)N[C@@H](CC(C)C)C(=O)N[C@@H](CC(=O)O)C(=O)N[C@@H](CCCCN)C(=O)N[C@@H](CCC(N)=O)C(=O)N[C@@H](C)C(=O)N[C@@H](C)C(=O)NC(C)(C)C(=O)N[C@@H](CCC(=O)O)C(=O)N[C@@H](Cc1ccccc1)C(=O)N[C@H](C(=O)N[C@@H](CCC(=O)O)C(=O)N[C@@H](Cc1c[nH]c2ccccc12)C(=O)N[C@@H](CC(C)C)C(=O)N[C@@H](CC(C)C)C(=O)N[C@@H](C)C(=O)NCC(=O)NCC(=O)N1CCC[C@H]1C(=O)N[C@@H](CO)C(=O)N[C@@H](CO)C(=O)NCC(=O)N[C@@H](C)C(=O)N1CCC[C@H]1C(=O)N1CCC[C@H]1C(=O)N1CCC[C@H]1C(=O)N[C@@H](CO)C(=O)N[C@@H](CCCCN)C(N)=O)C(C)C [compound 149] (X1-EGTFTSDYSIYLDKQAA[Aib]EFVEWLLAGGPSSGAPPPSK-NH2) | – | – | – | – | – | – | – | – | – | > 1000 |
| CC[C@H](C)[C@H](NC(=O)[C@H](CO)NC(=O)[C@H](Cc1ccc(O)cc1)NC(=O)[C@H](CC(=O)O)NC(=O)[C@H](CO)NC(=O)[C@@H](NC(=O)[C@H](Cc1ccccc1)NC(=O)[C@@H](NC(=O)CNC(=O)[C@H](CCC(=O)O)NC(=O)CSCC(=O)NCCN1C(=O)c2ccccc2C1=O)[C@@H](C)O)[C@@H](C)O)C(=O)N[C@@H](Cc1ccc(O)cc1)C(=O)N[C@@H](CC(C)C)C(=O)N[C@@H](CC(=O)O)C(=O)N[C@@H](CCC(=O)O)C(=O)N[C@@H](CCC(N)=O)C(=O)N[C@@H](C)C(=O)N[C@@H](C)C(=O)NC(C)(C)C(=O)N[C@@H](CCC(=O)O)C(=O)N[C@@H](Cc1ccccc1)C(=O)N[C@H](C(=O)N[C@@H](CC(N)=O)C(=O)N[C@@H](Cc1c[nH]c2ccccc12)C(=O)N[C@@H](CC(C)C)C(=O)N[C@@H](CC(C)C)C(=O)N[C@@H](C)C(=O)NCC(=O)NCC(=O)N1CCC[C@H]1C(=O)N[C@@H](CO)C(=O)N[C@@H](CO)C(=O)NCC(=O)N[C@@H](C)C(=O)N1CCC[C@H]1C(=O)N1CCC[C@H]1C(=O)N1CCC[C@H]1C(=O)N[C@@H](CO)C(=O)N[C@@H](CCCCN)C(N)=O)C(C)C [compound 150] (X1-EGTFTSDYSIYLDEQAA[Aib]EFVNWLLAGGPSSGAPPPSK-NH2) | – | – | – | – | – | 118 to 130 | – | – | – | > 1000 |
